Test results reported in patent US5747482A, “Methods and compositions to inhibit keratinocyte proliferation” (priority 1996, dated 1998).

Assays:
[1] = test system: Adult human keratinocytes; assay: Keratinocyte growth inhibition (crystal violet staining; confirmatory hexosaminidase activity), Example 2; assay type: cell-based
Text: Adult human keratinocytes from pooled donor skin were obtained from commercial sources (Cascade Biologics, Portland, Oreg., U.S.A.) and placed in 150 cm^2 bottom area culture flasks using culture medium 154 supplemented with HKGS (about 1%). At 80% confluency, cells were harvested with trypsin and cryopreserved until required. At the start of the experiments, the required number of vials of keratinocytes was thawed, and the keratinocytes were placed in culture in 24 well plates at about 2,500 cells/cm^2 using the same culture medium as described above. After 24 hours (to allow attachment), the medium was changed to fresh 154 supplemented with HKGS (about 1%) and gallium maltol. Specifically, the fresh medium was prepared by addition of a sufficient amount of a stock solution to provide for six different compositions having a final gallium concentration of 10^-4 M, 10^-5 M, 10^-6 M, 10^-8 M, 10^-10 M, and 10^-12 M. The stock solution was prepared by adding 22.25 mg of gallium maltol to 50 mL of 154 medium and then passing the solution through a 0.2 μm filter and storing at 4° C. Media were replaced every 2 or 3 days. […]

[2] = test system: Keratinocytes; assay: Effect on cell differentiation and cell number, gallium maltol added 24 hours after seeding, Example 4; assay type: cell-based, human; conditions: 7 days, high calcium
Description: (§1) Adult human keratinocytes from pooled donor skin were obtained from commercial sources (Cascade Biologics, Portland, Oreg., U.S.A.) and placed in 150 cm^2 bottom area culture flasks using culture medium 154 supplemented with HKGS (about 1%). At 80% confluency, cells were harvested with trypsin and cryopreserved until required.
(§2) Culture flasks (75 cm^2 bottom area) were seeded with keratinocytes at about 2,500 cells per cm^2 as before. After 24 hours, the medium in three (3) flasks were changed to media (154) with the calcium content increased from the normal 0.2 mM to 1.0 mM ("high calcium") plus gallium maltol (GaM) at the following concentrations: 1×10^-5 M, 5×10^-5 M, and 1×10^-4 M. The culture was continued for 7 days when cells were about 75% confluent in the controls (no GaM). Media supplemented as above were changed every 2 days. Finally, media were aspirated and cells rinsed with PBS before exposure to trypsin (0.025%)/EDTA (0.01%). When dislodged, they were collected in centrifuge tubes and the flasks rinsed with PBS:trypsin neutralizing solution (Clonetics, San Diego, Calif., U.S.A.; 1:1 v/v) and added to the cell suspension. The total volume of suspensions was approximately 8 to 10 mL. Aliquots of these suspensions were counted on the hemocytometer in terms of:
(§3) (1) small, light or dark keratinocytes, referred to as "proliferating";
(§4) (2) larger, squamous keratinocytes, with intracellular structural elements; and
(§5) (3) clear squamous cells without structural elements.
After counting, each suspension was centrifuged, the supernatant discarded, and the cell pellet resuspended in 0.5 to 1.0 mL of 1% SDS:2.5 mM DTT. After 15 minutes at 37° C., aliquots of these suspensions were counted for insoluble cornified envelops. The volumes were noted.

[3] = distilled deionized water
Text: Under some conditions, water may also be incorporated into the structure. […] The complex can be recrystallized from ethanol or other solvents to increase purity.

[4] = test system: Keratinocytes; assay: Effect on cell differentiation, keratinocytes grown 4 days before gallium maltol, Example 4; assay type: cell-based, human; conditions: for CELL NUMBER, clear squamous / CELL NUMBER, squamous / CELL NUMBER, proliferative: 3 days after 4 days growth; for CELL NUMBER, clear squamous: control 2.0 ± 0.03%; for CELL NUMBER, squamous: control 13.3 ± 2.6%; for CELL NUMBER, proliferative: control 83.6 ± 3.0%
Description: as §1, §2, §3, §4, §5
In a subsequent experiment, flasks of keratinocytes were grown in medium 154 for 4 days after seeding, before switching to the high calcium medium without gallium maltol (control) or with gallium maltol at final concentrations of 5×10^-5, 1×10^-5 or 1×10^-6 M. There were 2 or 3 flasks in each group. Culture was continued for another 3 days, when the keratinocytes were harvested and counted as before.

[5] = test system: Keratinocytes; assay: Comparison of keratinocyte growth inhibition by gallium maltol, gallium nitrate and maltol, Example 3; assay type: cell-based, human; conditions: 1×10^-4 M, 9 days, high Ca^+2 medium; FIG. 3
Text: as §1
At the start of the experiments, the required number of vials of keratinocytes was thawed, and the keratinocytes were placed in culture in 24 well plates at about 2,500 cells/cm^2 using the same culture medium as described above. After 24 hours (to allow attachment), the medium was changed to fresh 154 supplemented with HKGS (about 1%) and gallium maltol. Specifically, the fresh medium was prepared by addition of a sufficient amount of a stock solution to provide for six different compositions having a final gallium concentration of 10^-4 M, 10^-5 M, 10^-6 M, 10^-8 M, 10^-10 M, and 10^-12 M. The stock solution was prepared by adding 22.25 mg of gallium maltol to 50 mL of 154 medium and then passing the solution through a 0.2 μm filter and storing at 4° C.
When control cells were about 40% confluent (generally at 4-5 days in culture, all media were removed by aspiration, keratinocyte growth was assayed by crystal violet staining and conversion to cell numbers as described by Wilkinson, et al.^11. Specifically, cell layers rinsed in PBS, which was also aspirated, and 4 drops of crystal violet solution added to each well. The crystal violet solution was prepared by dissolving crystal violet (Fisher Scientific) in PBS:formaldehyde:ethanol (67:3:30%) to give a 0.5 w/v solution. A blank 24-well plate was treated similarly.
Keratinocytes were cultured in 24-well plates for 9 days in the manner described above in Example 2. […]
The cells were then cultured and subsequently evaluated for inhibition of keratinocyte proliferation in the manner described above.

## Cc1occc(=O)c1[O-].Cc1occc(=O)c1[O-].Cc1occc(=O)c1[O-].[Ga+3] [gallium maltol, neutral 3:1 gallium complex of maltol]
[1]; 10^-4 M, FIG. 1 (crystal violet) and FIG. 2 (hexosaminidase), 100 µM
  keratinocyte growth reduced as compared to control: 60 to 90%
[1]; concentrations below 10^-4 M, FIG. 2 (hexosaminidase)
  effect on keratinocyte growth at lower concentrations: may, in fact, slightly promote keratinocyte growth
[2]; 1×10^-4 M
  anti-proliferative effect: so great that the number of cells was too small for accurate counting
[2]; 1×10^-5 M
  number of proliferative, squamous and cornified cells vs control: for all intents and purposes, unchanged compared to control
[2]; 5×10^-5 M
  increase in the number of cornified envelopes vs control: tenfold
[2]; 5×10^-5 M, vs control, 50 µM
  decrease in total number of cells: about 90%
[2]; 5×10^-5 M, FIG. 4
  number of squamous cells vs control: increase in the number of squamous cells
  proportion of proliferative cells vs control: moderate decrease in the proportion of proliferative cells
[2]; 10^-5 M, control 0.26 ± 0.01%
  CELL NUMBER, cornified: 0.39 ± 0.17%
[2]; 10^-5 M, control 1.8 ± 0.9%
  CELL NUMBER, clear squamous: 2.9 ± 0.15%
[2]; 10^-5 M, control 12.7 ± 2.7%
  CELL NUMBER, squamous: 13.5 ± 0.65%
[2]; 10^-5 M, control 85.3 ± 2.7%
  CELL NUMBER, proliferative: 83.6 ± 0.64%
[2]
  concentration at which inhibition of keratinocyte proliferation is achieved: greater than 1×10^-5 M
  concentration enhancing cell differentiation of keratinocytes: greater than 1×10^-5 M
[3]
  solubility: about 24 millimolar
[4]; 1×10^-5 M
  CELL NUMBER, clear squamous: 3.1 ± 0.06%
  CELL NUMBER, squamous: 16.0 ± 3.1%
  CELL NUMBER, proliferative: 80.8 ± 2.0%
[4]; 5×10^-5 M, 1×10^-5 M (1×10^-6 M not counted), 4 days growth, then 3 days exposure
  differences in cell differentiation as determined by the proportion of cells: no significant differences were observed in cell differentiation
[4]; 5×10^-5 M
  CELL NUMBER, clear squamous: 3.5 ± 0.06%
  CELL NUMBER, squamous: 14.0 ± 1.1%
  CELL NUMBER, proliferative: 82.4 ± 0.91%
[5]
  inhibition of keratinocyte proliferation: about 94%
